In the experiment the target is T1, human cloned 5-HT6 receptors (Homo sapiens, UniProt P50406).
T1 construct: expressed in transfected cells; host or cells: Hela cells
The experiment in a line: 5-HT6 binding affinity, [3H]-LSD displacement on membranes of Hela cells expressing human cloned 5-HT6 receptors. How it is done: Comparative Evaluation of 5-HT6 Binding Affinity of Test Compounds
The affinity of test compounds for the serotonin 5-HT6 receptor is evaluated in the following manner. Cultured Hela cells expressing human cloned 5-HT6 receptors are harvested and centrifuged at low speed (1,000×g) for 10.0 min to remove the culture media. The harvested cells are suspended in half volume of fresh physiological phosphate buffered saline solution and recentrifuged at the same speed. This operation is repeated. The collected cells are then homogenized in ten volumes of 50 mM Tris.HCl (pH 7.4) and 0.5 mM EDTA. The homogenate is centrifuged at 40,000×g for 30.0 min and the precipitate is collected. The obtained pellet is resuspended in 10 volumes of Tris.HCl buffer and recentrifuged at the same speed. The final pellet is suspended in a small volume of Tris.HCl buffer and the tissue protein content is determined in aliquots of 10-25 μl volumes. Bovine Serum Albumin is used as the standard in the protein determination according to the method described in Lowry et al., J. Biol. Chem., 193:265 (1951). The volume of the suspended cell membranes is adjusted to give a tissue protein concentration of 1.0 mg/ml of suspension. The prepared membrane suspension (10 times concentrated) is aliquoted in 1.0 ml volumes and stored at −70° C. until used in subsequent binding experiments.
The reaction is allowed to proceed in the dark for 120 min at room temperature, at which time, the bound ligand-receptor complex is filtered off on a 96 well unifilter with a Packard Filtermate® 196 Harvester. The bound complex caught on the filter disk is allowed to air dry and the radioactivity is measured in a Packard TopCount® equipped with six photomultiplier detectors, after the addition of 40.0 μl Microscint®-20 scintillant to each shallow well. The unifilter plate is heat-sealed and counted in a PackardTopCount® with a tritium efficiency of 31.0%.
Binding in the presence of varying concentrations of test compound is expressed as a percentage of specific binding in the absence of test compound. The results are plotted as log % bound versus log concentration of test compound. […] A linear regression line of data points is plotted, from which the IC50 value is determined and the Ki value is determined based upon the following equation: Ki=IC50/(1+L/KD) where L is the concentration of the radioactive ligand used and KD is the dissociation constant of the ligand for the receptor, both expressed in nM.

This is an account of results in patent US7297705B2, “Azaindolylalkylamine derivatives as 5-hydroxytryptamine-6 ligands” (Wyeth, priority 2001, dated 2007).

Read-outs that look alike come from different tables or passages of the source.

T1 sequence (P50406 whole entry): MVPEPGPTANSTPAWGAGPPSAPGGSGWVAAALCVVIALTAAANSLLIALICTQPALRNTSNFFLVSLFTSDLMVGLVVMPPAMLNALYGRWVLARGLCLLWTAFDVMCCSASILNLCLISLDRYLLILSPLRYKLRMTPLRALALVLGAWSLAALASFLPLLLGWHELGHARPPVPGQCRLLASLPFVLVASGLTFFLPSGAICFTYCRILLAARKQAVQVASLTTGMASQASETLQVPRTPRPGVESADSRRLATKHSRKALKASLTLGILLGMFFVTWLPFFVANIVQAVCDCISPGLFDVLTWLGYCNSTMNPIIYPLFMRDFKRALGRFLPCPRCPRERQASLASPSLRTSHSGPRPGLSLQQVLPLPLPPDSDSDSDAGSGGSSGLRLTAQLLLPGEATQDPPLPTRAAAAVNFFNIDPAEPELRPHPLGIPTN

For the molecule `CN(C)CCc1cn(S(=O)(=O)c2cc(Cl)sc2Cl)c2ncccc12` [Example 152], the affinity, expressed as Ki, was 53.7 nM.

Take `NCCc1cn(S(=O)(=O)c2c(Cl)nc3ccccn23)c2ncccc12` [Example 137]: the Ki (read-out: 5-HT6 Binding Ki) was determined as 25 nM.

`NCCc1cn(S(=O)(=O)c2cccc(C(F)(F)F)c2)c2cccnc12` [Example 13] yielded a Ki of 5 nM.

`NCCc1cn(S(=O)(=O)c2ccc(F)c(F)c2)c2cccnc12` [Example 15] registered a Ki of 16 nM.

For `NCCc1cn(S(=O)(=O)c2ccccc2)c2ncccc12` [Example 80], under “read-out: 5-HT6 Binding Ki”, the Ki was determined as 43 nM.

For the molecule `NCCc1cn(S(=O)(=O)c2ccc(Cl)s2)c2cccnc12` [Example 5], the Ki (read-out: 5-HT6 Binding Ki) amounted to 2 nM.

Consider `NCCc1cn(S(=O)(=O)c2c(Cl)nc3sc(Cl)cn23)c2ncccc12` [Example 158], for which the inhibitory constant (Ki) (read-out: 5-HT6 Binding Ki) came to 90.7 nM.

`CN(C)CCc1cn(S(=O)(=O)c2ccc3ccccc3c2)c2ncccc12` [Example 96]: the inhibition constant Ki (read-out: 5-HT6 Binding Ki) was found to be 19.6 nM.

Turning to `NCCc1cn(S(=O)(=O)c2cccc(F)c2)c2ccncc12` [Example 41], the Ki (read-out: 5-HT6 Binding Ki) was found to be 170 nM.

Molecule `NCCc1cn(S(=O)(=O)c2cnc3sccn23)c2cccnc12` [Example 18] came in with a Ki of 1.6 nM.

Molecule `NCCc1cn(S(=O)(=O)c2ccccc2F)c2cccnc12` [Example 24] returned a Ki of 5.3 nM.

With `NCCc1cn(S(=O)(=O)c2cc(Cl)sc2Cl)c2ncccc12` [Example 132], the Ki (read-out: 5-HT6 Binding Ki) is 52 nM.

`CN(C)CCc1cn(S(=O)(=O)c2ccccc2C(F)(F)F)c2ncccc12` [Example 103]: the Ki is 38 nM.

The molecule `NCCc1cn(S(=O)(=O)c2ccccc2C(F)(F)F)c2ncccc12` [Example 89] showed a Ki of 38.3 nM.

Regarding `NCCc1cn(S(=O)(=O)c2c(Cl)sc(Cl)c2Br)c2ncccc12` [Example 136], the Ki (read-out: 5-HT6 Binding Ki) is 40 nM.

In turn, `CN(C)CCc1cn(S(=O)(=O)c2cccc(C(F)(F)F)c2)c2ncccc12` [Example 104] registered an inhibition constant Ki of 29.3 nM.

`NCCc1cn(S(=O)(=O)c2cccc(F)c2)c2cccnc12` [Example 20] had a Ki of 3.3 nM.

The molecule `NCCc1cn(S(=O)(=O)c2ccc(F)c(Cl)c2)c2ncccc12` [Example 109] returned an inhibition constant (Ki) of 61.3 nM.

Molecule `NCCc1cn(S(=O)(=O)c2cccc(Cl)c2Cl)c2cccnc12` [Example 23] registered an inhibition constant (Ki) of 2.1 nM.

`NCCc1cn(S(=O)(=O)c2ccc(N)cc2)c2ncccc12` [Example 83] yielded a Ki of 2.4 nM.

Regarding `NCCc1cn(S(=O)(=O)c2ccc(Cl)s2)c2ccncc12` [Example 43], the inhibition constant (Ki) is 47.5 nM.

On to `Cc1cc(S(=O)(=O)n2cc(CCN)c3cccnc32)c(C)cc1Cl` [Example 114], for which the inhibition constant (Ki) is 17.7 nM.

Consider `NCCc1cn(S(=O)(=O)c2cccc(Br)c2)c2cccnc12` [Example 25], for which the inhibition constant (Ki) (read-out: 5-HT6 Binding Ki) stood at 3.5 nM.

Molecule `CN(C)CCc1cn(S(=O)(=O)c2ccc(F)cc2Cl)c2ncccc12` [Example 144] had a Ki of 56.3 nM.

Regarding `NCCc1cn(S(=O)(=O)c2cccc(C(F)(F)F)c2)c2ncccc12` [Example 90], the inhibitory constant (Ki) was 21 nM.

`CN(C)CCc1cn(S(=O)(=O)c2c(Cl)nc3ccccn23)c2ncccc12` [Example 153]: affinity was put at a Ki of 57.3 nM.

`NCCc1cn(S(=O)(=O)c2ccc(Cl)s2)c2ncccc12` [Example 129]: the inhibition constant (Ki) is 11.7 nM.

Molecule `COc1cccc(S(=O)(=O)n2cc(CCN(C)C)c3cccnc32)c1` [Example 97] had a Ki of 24.6 nM.

On to `NCCc1cn(S(=O)(=O)c2ccc(F)cc2F)c2ncccc12` [Example 71], for which the Ki (read-out: 5-HT6 Binding Ki) came out at 113 nM.

`CN(C)CCc1cn(S(=O)(=O)c2ccccc2F)c2ncccc12` [Example 147]: the Ki was 47.3 nM.

The molecule `Cc1cc(S(=O)(=O)n2cc(CCN(C)C)c3cccnc32)c(C)cc1Cl` [Example 146] registered an inhibition constant (Ki) of 31.7 nM.

In the case of `NCCc1cn(S(=O)(=O)c2cccc(C(F)(F)F)c2)c2ccncc12` [Example 46], the Ki (read-out: 5-HT6 Binding Ki) came out at 173 nM.

Regarding `NCCc1cn(S(=O)(=O)c2cccc(Cl)c2)c2cccnc12` [Example 16], the Ki (read-out: 5-HT6 Binding Ki) was found to be 1.6 nM.

`NCCc1cn(S(=O)(=O)c2cccc(Cl)c2Cl)c2ccncc12` [Example 47] yielded a Ki of 32.7 nM.

With `COc1cccc(S(=O)(=O)n2cc(CCN)c3cnccc32)c1` [Example 42], for the setting “read-out: 5-HT6 Binding Ki”, the inhibitory constant (Ki) worked out at 198 nM.

In turn, `Cc1ccc(S(=O)(=O)n2cc(CCN)c3cccnc32)cc1Cl` [Example 111] had a Ki of 3.6 nM.

In the case of `NCCc1cn(S(=O)(=O)c2c(Cl)nc3sc(Cl)cn23)c2cccnc12` [Example 26], the Ki came out at 7.3 nM.

`NCCc1cn(S(=O)(=O)c2cccc(Cl)c2)c2ncccc12` [Example 121] came in with an inhibition constant (Ki) of 6 nM.

For `Cc1cccc(S(=O)(=O)n2cc(CCN)c3cnccc32)c1` [Example 45], the Ki (read-out: 5-HT6 Binding Ki) was 152 nM.

Turning to `NCCc1cn(S(=O)(=O)c2ccc(Cl)cc2)c2ncccc12` [Example 122], the inhibitory constant (Ki) was 50 nM.

In the case of `NCCc1cn(S(=O)(=O)c2c(Cl)nc3sccn23)c2ccncc12` [Example 35, 2-{[1-(6-Chloroimidazo[2,1-b]thiazol-5-yl)sulfonyl]-1H-pyrrolo[3,2-c]pyridin-3-yl)ethylamine], the Ki came to 15.7 nM.

As for `COc1ccc(Cl)cc1S(=O)(=O)n1cc(CCN)c2cccnc21` [Example 113], the inhibitory constant (Ki) (read-out: 5-HT6 Binding Ki) came out at 186 nM.

Molecule `NCCc1cn(S(=O)(=O)c2ccc(C(F)(F)F)cc2Cl)c2cccnc12` [Example 14] yielded an inhibition constant (Ki) of 15 nM.

As for `NCCc1cn(S(=O)(=O)c2ccc3ccccc3c2)c2ncccc12` [Example 82], the inhibitory constant (Ki) turned out to be 12 nM.

Take `COc1cccc(S(=O)(=O)n2cc(CCN)c3ncccc32)c1` [Example 17]: the Ki came out at 2.9 nM.

In turn, `Cc1cccc(S(=O)(=O)n2cc(CCN)c3ncccc32)c1` [Example 22] displayed a Ki of 2.4 nM.

As to `NCCc1cn(S(=O)(=O)c2cnc3sccn23)c2ccncc12` [Example 39], affinity was put at a Ki of 47 nM.

`Cc1ccc(C)c(S(=O)(=O)n2cc(CCN)c3cccnc32)c1` [Example 108] yielded a Ki of 23.7 nM.

On to `NCCc1cn(S(=O)(=O)c2ccc(F)cc2Cl)c2ncccc12` [Example 110], for which the inhibition constant Ki turned out to be 38.3 nM.

`NCCc1cn(S(=O)(=O)c2cccc3nsnc23)c2ncccc12` [Example 142]: for the setting “read-out: 5-HT6 Binding Ki”, the Ki was 69.7 nM.

In the case of `NCCc1cn(S(=O)(=O)c2cccc(F)c2)c2ncccc12` [Example 116], the inhibition constant (Ki) was 13.4 nM.

In the case of `NCCc1cn(S(=O)(=O)c2cc(Cl)c(Cl)s2)c2ncccc12` [Example 131], the Ki came to 19.7 nM.

With `CN(C)CCc1cn(S(=O)(=O)c2cccc(F)c2)c2ncccc12` [Example 148], the Ki was 28 nM.

`CC(C)c1ccc(S(=O)(=O)n2cc(CCN)c3cccnc32)cc1` [Example 93] returned an inhibition constant (Ki) of 39.3 nM.

As to `NCCc1cn(S(=O)(=O)c2c(Cl)nc3sccn23)c2ncccc12` [Example 154], the Ki was 7.4 nM.

As to `NCCc1cn(S(=O)(=O)c2cccc(Cl)c2)c2ccncc12` [Example 40], the Ki (read-out: 5-HT6 Binding Ki) amounted to 110 nM.

On to `CN(C)CCc1cn(S(=O)(=O)c2ccc(Cl)s2)c2ncccc12` [Example 151], for which affinity was put at a Ki of 13 nM.

Turning to `NCCc1cn(S(=O)(=O)c2ccccc2)c2cccnc12` [Example 19], the Ki (read-out: 5-HT6 Binding Ki) came to 4.5 nM.

Molecule `CN(C)CCc1cn(S(=O)(=O)c2ccccc2)c2ncccc12` [Example 94] had an inhibitory constant (Ki) of 40 nM.

As to `NCCc1cn(S(=O)(=O)c2ccccc2Cl)c2cccnc12` [Example 1, 2-[1-(2-Clorobenzensulfonyl)-1H-pyrrolo[3,2-b]pyridin-3-yl]ethylamine], the inhibition constant Ki ([3H]-LSD 3.0 nM, 120 min at room temperature, Ki=IC50/(1+L/KD), read-out: 5-HT6 Binding Ki) turned out to be 5 nM.

On to `NCCc1cn(S(=O)(=O)c2ccccc2Cl)c2ncccc12` [Example 120], for which the affinity corresponds to a Ki of 27 nM.

As to `NCCc1cn(S(=O)(=O)c2cc(Br)c(Br)s2)c2ncccc12` [Example 133], the Ki was 10.7 nM.

For `COc1cccc(S(=O)(=O)n2cc(CCN)c3cccnc32)c1` [Example 68, 2-[1-(3-Methoxybenzenesulfonyl)-1H-pyrrolo[2,3-b]pyridin-3-yl]ethylamine], the affinity corresponds to a Ki of 33.3 nM.

Take `COc1ccc(S(=O)(=O)n2cc(CCN)c3cccnc32)cc1OC` [Example 85]: the Ki (read-out: 5-HT6 Binding Ki) amounted to 106 nM.

Regarding `NCCc1cn(S(=O)(=O)c2ccc(F)c(F)c2)c2ncccc12` [Example 118], the inhibitory constant (Ki) came out at 89.3 nM.

Take `NCCc1cn(S(=O)(=O)c2ccccc2F)c2ncccc12` [Example 115]: the Ki (read-out: 5-HT6 Binding Ki) worked out at 39.3 nM.

Molecule `NCCc1cn(S(=O)(=O)c2ccc(Br)s2)c2ncccc12` [Example 130] returned a Ki of 8.5 nM.

Take `NCCc1cn(S(=O)(=O)c2cccc3nonc23)c2ncccc12` [Example 141]: the Ki (read-out: 5-HT6 Binding Ki) is 42.3 nM.

As to `NCCc1cn(S(=O)(=O)c2sc(Cl)cc2Br)c2ncccc12` [Example 134], the affinity, expressed as Ki, was 29 nM.
